The values that follow come from the METLIN SMRT retention time set (Domingo-Almenara et al. 2019).

A short description of the series: gradient 5% acetonitrile 3 min, to 50% in 2 min, to 85% in 15 min, held 3 min, 100 µL/min. To be noted: column: Zorbax Extend-C18 2.1 x 50 mm; eluents: water / acetonitrile, 0.1% formic acid. In outline: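 The mobile phases were water and acetonitrile, each with 0.1% formic acid, pumped at 100 μL/min through a Zorbax Extend-C18 column (2.1 × 50 mm, 1.8 μm). Pure standards were injected as mixtures of ~100 molecules and detected by a quadrupole time-of-flight mass spectrometer in positive and negative ionization mode. Retention time came from computationally picked adduct peaks, each inspected by hand.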
For `COc1ccc(-c2nc3cccnc3n2C2CCN(S(=O)(=O)c3ccccc3)C2)cc1` (centres undefined), the RP-LC retention time was 778 s. Next, `Cc1ccc(Sc2nccnc2N2CCCC(C(=O)N3CCN(c4ccc(F)cc4)CC3)C2)cc1` (centres undefined): 1230 s; `CC(C)c1ccc(NC(=O)C2(Cc3cccnc3)CCCCC(=O)N2)cc1` (centres undefined): 669 s. On to `CC(=O)Nc1ccc2c(c1)CN(C(=O)c1ccccc1F)C(C(=O)N1CCCC1)C2` (centres undefined), for which the RP-LC retention time was 646 s. The compound `Cc1cccc(NS(=O)(=O)c2cc3n(c2)CCN(CC(C)C)C3=O)c1C` showed an RP-LC retention time of 852 s.

In turn, `COc1ccc(-c2ccnc3nc(-c4cccs4)nn23)c(F)c1` yielded an RP-LC retention time of 905 s.

Take `Cc1ccc(NC(=O)C2=C(Nc3ccc4c(c3)n(C)c(=O)n4C)c3ccccc3S2(=O)=O)cc1`: the RP-LC retention time was determined as 902 s.

With `CC1=C(c2ccc(C)cc2)S(=O)(=O)N=C1N1CCC(NC(=O)c2ccoc2)CC1`, the RP-LC retention time was 805 s.

The compound `COc1cc(NC(=O)Cc2csc3nc(-c4ccccc4)cn23)cc(OC)c1OC` registered an RP-LC retention time of 749 s. Consider `CCCN(C)C[C@@H]1CC(F)(F)CN1C1CCN(S(=O)(=O)c2ccccc2C)CC1`, for which the RP-LC retention time stood at 620 s. The value for `Cc1nc(-c2ccc(-c3noc(C(C)NC(=O)c4ccccc4)n3)cc2)cs1` (centres undefined) was 963 s.

With `Cc1ccc(N(C)C(=O)C2CCN(S(=O)(=O)c3ccc4c(c3)NC(=O)CO4)CC2)cc1`, the RP-LC retention time came out at 780 s. Compound `COC[C@@H]1CN(Cc2cccc(OC)c2OC)C[C@H]1c1ccccn1` came in with an RP-LC retention time of 656 s. The compound `Cn1ncc2c(N3CCSCC3)nc(C(=O)N3CCN(c4ccc(F)cc4)CC3)nc21` yielded an RP-LC retention time of 841 s. The value for `COc1cccc(CNC(=O)NCCc2nc3cccnc3n2Cc2ccccc2)c1` was 723 s. For the compound `CC1=C(c2cccc(Cl)c2)S(=O)(=O)N=C1N1CCCN(C(=O)c2ccco2)CC1`, the RP-LC retention time amounted to 818 s. For `CN1C(=O)c2ccccc2Sc2cc(-c3noc(CNC(=O)c4ccco4)n3)ccc21`, the RP-LC retention time amounted to 702 s. Next, `CSc1ccc(C2c3[nH]c4ccccc4c3CCN2C(=O)c2ccco2)cc1` (centres undefined): 1140 s; `O=C(Nc1ccc(F)cc1F)N1CCN(c2cc(-c3ccncc3)[nH]n2)CC1`: 596 s. `Cc1noc(-c2nn(C)c3c2CN(C(=O)c2cc(F)ccc2F)CC3)n1` registered an RP-LC retention time of 737 s. As to `Cc1noc(C)c1CC(=O)NC1CCc2nn(CC3CC3)c(=O)n2CC1` (centres undefined), the RP-LC retention time is 625 s. Next, `Cc1ccc(S(=O)(=O)N2CCC(n3cnc4ccc(C)cc4c3=O)CC2)cc1`: 925 s; `CCn1ncc(N2CCCC(CC(=O)O)C2)cc1=O` (centres undefined): 632 s.

As to `CC(C)Oc1ccc(-c2noc(CCn3nc(-c4ccc5c(c4)OCO5)ccc3=O)n2)cc1`, the RP-LC retention time stood at 1020 s. Compound `Cc1ccc(C)c(C(=O)Nc2ccc3c(c2)Sc2ncccc2C(=O)N3C)c1` yielded an RP-LC retention time of 888 s. With `COc1cccc(N2CCN(S(=O)(=O)c3nn(C)cc3C(=O)NC3CC3)CC2)c1`, the RP-LC retention time was determined as 818 s. Regarding `COc1cccc(Cn2c(=O)c3cnc(-c4ccncc4)nc3n(C)c2=O)c1`, the RP-LC retention time was 805 s. `Cc1nc(-c2ccc(C(=O)NC3CC3)cc2)no1` displayed an RP-LC retention time of 668 s. The value for `Cc1ncsc1C1N(C2CCN(C(=O)c3ccoc3)CC2)C(=O)C12CCCC2` (centres undefined) was 719 s; that for `CCn1cc(-c2nc(CC(=O)N3CCN(c4ccc(F)cc4)CC3)cs2)c2cccnc21` was 921 s; that for `Cc1noc(-c2ccnc(-n3cnc(C(=O)NCCc4ccccc4)c3)c2)n1` was 823 s. For `O=C(NCc1ccccc1)C1Cc2ccccc2CN1S(=O)(=O)c1ccccc1` (centres undefined), the RP-LC retention time amounted to 981 s.

In the case of `CCOC(=O)c1noc2ncnc(NCCc3ccc(Cl)cc3)c12`, the RP-LC retention time was found to be 1110 s.

In turn, `COc1ccc(NC(=O)C2CCc3nc(N4CCC(C)CC4)ncc3C2)c(OC)c1` (centres undefined) showed an RP-LC retention time of 873 s. The compound `Cc1oc2ccn(Cc3cccc(F)c3)c(=O)c2c1C(=O)NCc1ccccc1F` registered an RP-LC retention time of 1060 s. The value for `COc1ccc(CC(=O)N2CCc3cc(-c4ccno4)ccc32)cc1` was 909 s; that for `CCC(C(=O)NCc1ccc(C)o1)n1nc(C)c2nn(-c3ccccc3)c(C)c2c1=O` (centres undefined) was 870 s. For the compound `CCC(CC)C(=O)Nc1nc(-c2ccc3c(c2)N(C)C(=O)CO3)c(C)s1`, the RP-LC retention time was 962 s. Consider `Cc1ccc2nc3c(c(C(=O)NC4CC4)c2c1)CCCC3`, for which the RP-LC retention time came out at 584 s. Turning to `CCn1c(CC2CCN(C(=O)NCCc3ccccc3)C2)nc2cccnc21` (centres undefined), the RP-LC retention time was found to be 588 s. Turning to `CC(=O)NC(CCS(C)(=O)=O)C(=O)Nc1ccc(-c2nc3ccc(C)cc3s2)cc1` (centres undefined), the RP-LC retention time was 741 s. As to `CCn1cc(-c2ccc(Cl)cc2)cc1C(=O)N1CCCCC1`, the RP-LC retention time worked out at 1150 s. Turning to `O=C(NCc1ccccc1)c1nnc(-c2ccc(S(=O)(=O)N3CCCCC3)cc2)o1`, the RP-LC retention time was 953 s. The compound `Cc1cccc(C)c1NC(=O)C1CCN(S(=O)(=O)c2ccc3c(c2)NC(=O)CO3)CC1` showed an RP-LC retention time of 813 s. The compound `CCOc1ccc(N2C(=O)C3N=NN(Cc4nc(-c5ccc(OC(C)C)cc5)no4)C3C2=O)cc1` (centres undefined) registered an RP-LC retention time of 1120 s.

Take `CC(=O)N1CCN(C(=O)c2ccc(C(=O)O)cc2)CC1`: the RP-LC retention time came to 530 s.

`O=C(Nc1cccn2nc(C3CCC3)nc12)c1ccccn1`: the RP-LC retention time was found to be 961 s. Turning to `COc1ccc2[nH]c(=O)c(CCC(=O)NCc3nc4ccccc4n3C)cc2c1`, the RP-LC retention time was 577 s. `COc1cccc(CNC(=O)C2CCCN(S(=O)(=O)c3cc(-c4noc(C)n4)cs3)C2)c1` (centres undefined) registered an RP-LC retention time of 874 s. On to `C=CCNc1c(C(=O)OC)c(=O)[nH]c2c(Cl)cccc12`, for which the RP-LC retention time stood at 700 s. `C=CCN1C(=O)COc2ccc(-c3nc(NC(=O)c4ccc(Cl)cc4)sc3C)cc21` returned an RP-LC retention time of 1140 s. In turn, `CSc1ccccc1NC(=O)c1cnc2ccc(C)cn2c1=O` returned an RP-LC retention time of 806 s. `CCN1C(=O)C2(CCN(C(=O)C3CC3)CC2)c2ccccc21`: the RP-LC retention time stood at 779 s. For `Cc1cc(C)c(CNC(=O)C2CCN(c3cnc(N4CCSCC4)nc3)CC2)c(C)c1`, the RP-LC retention time came to 959 s. As for `CCNC(=O)c1cc(C(C)C)[nH]n1`, the RP-LC retention time worked out at 618 s. With `O=C(c1ccco1)N1CCC(O)(c2ccccc2)[C@H](N2CCCC2)C1` (some centres undefined), the RP-LC retention time was determined as 555 s.

Regarding `CC(C)NC(=O)N1[C@H]2CC[C@@H]1c1cnc(-c3ccc(F)cc3)nc1C2`, the RP-LC retention time stood at 839 s. The value for `O=C(C1CCCN(c2nccnc2Oc2ccccc2)C1)N1CCN(c2cccc(Cl)c2)CC1` (centres undefined) was 1180 s; that for `COc1cccc(S(=O)(=O)N2C[C@@H](F)C[C@H]2C(=O)N2CCOCC2)c1` was 676 s. Consider `COc1cccc(-c2nnc(SCc3cc(=O)n4c(C)csc4n3)o2)c1`, for which the RP-LC retention time stood at 840 s. The value for `CCCN1CCN(c2cc(C(=O)O)c3cc(NS(=O)(=O)c4ccc(OCC)cc4)ccc3n2)CC1` was 624 s. `Cc1ncn(CC(=O)Nc2ccccc2F)c(=O)c1C` gave an RP-LC retention time of 628 s. `O=C(CC1CCCC1)N1[C@H]2CC[C@@H]1c1cnc(-c3ccccc3)nc1C2` yielded an RP-LC retention time of 1000 s. Compound `COc1ccccc1CNC1=NCCNC12CCN(S(=O)(=O)c1ccccc1C)CC2` yielded an RP-LC retention time of 732 s. In the case of `Cc1ccccc1Nc1c(-c2cc(Br)ccc2F)nc2c(C)cccn12`, the RP-LC retention time was 843 s. Turning to `Cc1cc(C(=O)Nc2ccc(-c3nc4ccccc4o3)cc2)c(C)o1`, the RP-LC retention time came to 1020 s. Compound `Cc1noc(C)c1-c1ccc(S(=O)(=O)Nc2ccc(Cl)cc2)cc1` displayed an RP-LC retention time of 1000 s. Take `OCCOCCNCc1ccc(-c2ccc(Cl)cc2)o1`: the RP-LC retention time worked out at 644 s.

Consider `CCc1ccccc1S(=O)(=O)Nc1ccc2c(c1)CCC(=O)N2CCOC`, for which the RP-LC retention time stood at 816 s.

In turn, `Fc1ccc(CN2CC(F)(F)C[C@H]2COc2cccnc2)c(Cl)c1` displayed an RP-LC retention time of 870 s. Take `O=C(Nc1cccc(-c2nnc3n2CCCC3)c1)C1(c2ccccc2)CC1`: the RP-LC retention time came out at 719 s. In the case of `O=C(NCCc1nc2cccnc2n1Cc1ccccc1)Nc1ccc2c(c1)OCO2`, the RP-LC retention time was determined as 726 s. On to `CCn1cc(-c2nc(CC(=O)NCc3ccccc3F)cs2)c2cccnc21`, for which the RP-LC retention time came to 843 s. As to `CCCn1cnc2cc(-c3noc(C(C)NS(=O)(=O)c4ccc(C)cc4)n3)ccc21` (centres undefined), the RP-LC retention time stood at 731 s.

In turn, `CC(C)C(=O)Nc1nc(-c2ccc3c(c2)NC(=O)C(C)O3)cs1` (centres undefined) displayed an RP-LC retention time of 787 s. Regarding `CC(=O)c1cccc(NC(=O)c2cc(-c3cccnc3)nc3ccccc23)c1`, the RP-LC retention time worked out at 739 s. In the case of `COc1cccc(N2CCN(C(=O)Cn3ccc4c(SCc5ccccc5)nccc43)CC2)c1`, the RP-LC retention time amounted to 775 s. With `CCOC(=O)c1[nH]c(C)c(CCC(=O)N2CCN(C(=O)c3ccco3)CC2)c1C`, the RP-LC retention time is 709 s. `COc1cccc(-c2c(C(=O)O)nnn2-c2ccc3c(c2)OCCO3)c1`: the RP-LC retention time was determined as 744 s.
